IC50 and Ki data for eight compounds are collected here from patent US20230293517A1, “ANTAGONIST COMPOUNDS” (AdoRx Therapeutics Limited, priority 2020, published 2023).

Assay [1] concerns immature monocyte-derived dendritic cells (MoDC). In words: MoDC pCREB assay. It counts as cell-based, human. The note with it: Homo sapiens, Dendritic cell; pCREB in immature MoDC, 1 μM NECA, rolipram. In a few lines:
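Human CD14+ monocytes differentiated 5 days into immature MoDC, pre-incubated 15 min at 37 °C with antagonist plus rolipram, then stimulated with 1 μM NECA for 45 min at 37 °C. Phospho-CREB measured by flow cytometry in gated CD209+/CD86− low cells; IC50 from the inflection point of a sigmoidal curve.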

A further assay has as its system human PBMCs. In words: CD3/CD28 stimulated IL-2 release NECA reversal assay in human PBMCs. The settings on record: PBMC, 1 uM NECA, 24 hours, IL-2 in culture supernatant. The format is cell-based. In short, it runs like this: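 PBMCs from citrated healthy-donor blood plated at 50,000 cells/well on 1 ug/ml CD3 antibody with 1 ug/ml CD28 antibody, 1 uM NECA and 0.003-10 μM antagonist (final), 24 h at 37° C. Supernatant IL-2 measured by MSD immunoassay; % inhibition set against no-NECA control wells as 100%.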

Assay [2] deals with human Adenosine A2a receptor (Homo sapiens (Human), UniProt P29274). In words: Adenosine receptor TR-FRET binding assay (A2a). The settings on record: inhibition of binding of 100 nM CA200645, CHO cell membranes. In short, it runs like this:
(§1)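 CHO membranes, Tb-labelled hA1/hA2a/hA2b/hA3; tracer CA200645 at 100 nM (A1, A2a, A3) or 30 nM (A2b); buffer with saponin, 1% DMSO, pluronic; 2 h RT. NSB with 10 μM XAC. Read TR-FRET (ex 337, em 620/665 nm); IC50 → Ki via Cheng–Prusoff.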
On the technique in general: Time-resolved FRET reads energy transfer from a long-lived donor to a nearby acceptor.

The target in assay [3] is human Adenosine A2b receptor (Homo sapiens (Human), UniProt P29275). In words: Adenosine receptor TR-FRET binding assay (A2b). The note with it: TR-FRET, inhibition of binding of 30 nM CA200645, CHO cell membranes. In short, it runs like this: as §1
In assay [4] the test system is CD8+T cells in human whole blood. In words: Measurement of pCREB in CD8+T cells in human whole blood. The note with it: 3 μM NECA, rolipram. The format is cell-based. In a few lines: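 Heparinised human whole blood pre-incubated 20 min at 37 °C with serially diluted A2a antagonists plus rolipram, then stimulated 60 min with 3 μM NECA (final). After fixation and red-cell lysis, white cells were permeabilized and stained for phospho-CREB and CD8; pCREB in CD8+ T cells measured by flow cytometry.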

Assay [5] concerns the target human Adenosine A1 receptor (Homo sapiens (Human), UniProt P30542). In words: Adenosine receptor TR-FRET binding assay (A1). The settings on record: inhibition of binding of 100 nM CA200645, CHO cell membranes. In a few lines:
as §1

In assay [6] the target is human Adenosine A3 receptor (Homo sapiens (Human), UniProt P0DMS8). In words: Adenosine receptor TR-FRET binding assay (A3). The settings on record: inhibition of binding of 100 nM CA200645, CHO cell membranes. In short, it runs like this: as §1

For orientation: pIC50 means −log10 of the IC50, conventionally taken in molar units. For orientation: pKi means the Ki on a negative log10 scale, so that one unit is a factor of ten.

pIC50, pKi: −log10 of the molar value.

Chain of human Adenosine A1 receptor (P30542 whole entry): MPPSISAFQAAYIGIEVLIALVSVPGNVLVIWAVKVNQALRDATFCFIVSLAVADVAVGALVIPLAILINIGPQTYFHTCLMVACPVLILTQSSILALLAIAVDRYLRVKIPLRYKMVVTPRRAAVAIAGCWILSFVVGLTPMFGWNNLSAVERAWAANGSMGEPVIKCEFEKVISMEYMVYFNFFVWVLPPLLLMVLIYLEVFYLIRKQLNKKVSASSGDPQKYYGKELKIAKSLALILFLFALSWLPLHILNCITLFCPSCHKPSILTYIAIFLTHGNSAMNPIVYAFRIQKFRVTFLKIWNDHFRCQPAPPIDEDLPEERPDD
Chain of human Adenosine A2b receptor (P29275 whole entry): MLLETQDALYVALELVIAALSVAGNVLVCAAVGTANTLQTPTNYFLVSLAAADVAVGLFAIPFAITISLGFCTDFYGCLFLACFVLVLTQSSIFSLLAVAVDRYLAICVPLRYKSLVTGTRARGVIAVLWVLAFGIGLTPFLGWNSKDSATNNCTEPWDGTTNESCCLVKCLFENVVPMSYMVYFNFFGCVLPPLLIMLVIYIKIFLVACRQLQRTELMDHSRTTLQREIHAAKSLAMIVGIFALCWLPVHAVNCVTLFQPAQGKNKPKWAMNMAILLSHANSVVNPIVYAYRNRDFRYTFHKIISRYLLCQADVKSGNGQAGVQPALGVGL
Chain of human Adenosine A3 receptor (P0DMS8 whole entry): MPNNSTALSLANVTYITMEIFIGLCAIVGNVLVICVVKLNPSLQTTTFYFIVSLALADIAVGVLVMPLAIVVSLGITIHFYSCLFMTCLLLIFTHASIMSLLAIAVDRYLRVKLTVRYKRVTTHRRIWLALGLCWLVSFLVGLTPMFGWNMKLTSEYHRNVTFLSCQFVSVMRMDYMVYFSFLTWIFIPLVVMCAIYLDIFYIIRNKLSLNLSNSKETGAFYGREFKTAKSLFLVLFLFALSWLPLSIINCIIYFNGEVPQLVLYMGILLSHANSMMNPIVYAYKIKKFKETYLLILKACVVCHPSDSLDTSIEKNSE
Chain of human Adenosine A2a receptor (P29274 whole entry): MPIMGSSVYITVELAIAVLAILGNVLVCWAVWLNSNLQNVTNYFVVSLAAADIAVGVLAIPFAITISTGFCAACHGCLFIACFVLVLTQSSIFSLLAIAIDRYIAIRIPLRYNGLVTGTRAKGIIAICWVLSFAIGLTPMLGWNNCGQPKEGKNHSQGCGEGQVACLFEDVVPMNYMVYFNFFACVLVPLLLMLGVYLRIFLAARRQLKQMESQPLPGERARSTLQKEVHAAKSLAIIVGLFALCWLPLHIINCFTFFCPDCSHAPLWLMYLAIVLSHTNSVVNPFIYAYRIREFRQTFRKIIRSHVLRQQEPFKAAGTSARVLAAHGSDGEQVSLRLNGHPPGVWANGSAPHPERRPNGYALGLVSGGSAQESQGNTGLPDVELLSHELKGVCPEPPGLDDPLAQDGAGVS

For the compound `Cc1cc(-c2sc(NC(=O)N3CC4(COC4)C3)nc2-c2cccc(C#N)c2)cc(C(F)(F)F)n1` [Example 6.99, N-[4-(3-Cyanophenyl)-5-[2-methyl-6-(trifluoromethyl)-4-pyridyl]thiazol-2-yl]-2-oxa-6-azaspiro[3.3]heptane-6-carboxamide], the values for the pIC50 (in assay [1]; with human PBMCs; in assay [4]) were 8.10, 9.15 and 7.40, respectively. Further, the negative logarithm of the Ki (pKi) in assay [2] was 9.89; in assay [3], 9.15; in assay [5], 7.85; in assay [6] it was 7.11.
Take `Cc1cc(-c2sc(NC(=O)N3CCC(C#N)(C#N)CC3)nc2-c2cccc(C#N)c2)cc(CO)n1` [Example 9.8]: the values for the pIC50 (in assay [1]; with human PBMCs; in assay [4]) were 8.10, 9.15 and 8.00, respectively. Besides, the negative logarithm of the Ki (pKi) in assay [2] was 9.43; in assay [3] it was 8.62; in assay [5] it was 7.62; in assay [6], 6.21.
With `Cc1cc(-c2sc(NC(=O)N3CC4(COC4)C3)nc2-c2cccc(C#N)c2)cc(C(C)(C)O)n1` [Example 12.2, N-[4-(3-Cyanophenyl)-5-[2-(1-hydroxy-1-methyl-ethyl)-6-methyl-4-pyridyl]thiazol-2-yl]-2-oxa-6-azaspiro[3.3]heptane-6-carboxamide], the values for the pIC50 (in assay [1]; in the assay with human PBMCs; in assay [4]) were 7.26, 9.40 and 8.00, respectively. Moreover, the negative logarithm of the Ki (pKi) in assay [2] was 9.55; in assay [3], 8.08; in assay [5], 8.22; in assay [6], 5.82.
Consider `Cc1cc(-c2sc(NC(=O)N3CC4(COC4)C3)nc2-c2cccc(C#N)c2)cc(CF)n1` [Example 16.6], for which the negative-log IC50 (pIC50) was 7.89 in assay [1], 8.59 in the assay with human PBMCs and 7.00 in assay [4]. Moreover, the negative logarithm of the Ki (pKi) was 9.80 in assay [2], 8.80 in assay [3], 7.38 in assay [5] and 6.01 in assay [6].
`Cc1cc(-c2sc(NC(=O)N3CC4(COC4)C3)nc2-c2cccc(C#N)c2)cc(C2CC2)n1` [Example 16.7]: the negative-log IC50 (pIC50) in assay [1] was 7.85; with human PBMCs it was 9.05; in assay [4] it was 7.22. For the same compound, the negative logarithm of the Ki (pKi) is 9.89 in assay [2], 8.80 in assay [3], 7.89 in assay [5] and 6.32 in assay [6].
As to `Cc1cc(-c2sc(NC(=O)N3CCC(C)(C#N)CC3)nc2-c2cccc(C#N)c2)cc(CO)n1` [Example 24, 4-Cyano-N-[4-(3-cyanophenyl)-5-[2-(hydroxymethyl)-6-methyl-4-pyridyl]thiazol-2-yl]-4-methyl-piperidine-1-carboxamide], the pIC50 in assay [1] is 7.68; with human PBMCs, 8.80; in assay [4] it was 7.70. For the same compound, the pKi is 9.62 in assay [2], 8.57 in assay [3], 7.15 in assay [5] and 6.17 in assay [6].
In the case of `Cc1cc(-c2sc(NC(=O)N3CC[C@](C)(C#N)C3)nc2-c2cccc(C#N)c2)cc(C)n1` [Example 27b, (3S)-3-cyano-N-[4-(3-cyanophenyl)-5-(2,6-dimethyl-4-pyridyl)thiazol-2-yl]-3-methyl-pyrrolidine-1-carboxamide], the negative-log IC50 (pIC50) is 8.40 in assay [1], 9.00 in the assay on human PBMCs and 7.40 in assay [4]. Further, the pKi in assay [2] is 9.85; in assay [3], 9.00; in assay [5], 7.48; in assay [6], 6.57.
Turning to `[2H]C([2H])([2H])c1cc(-c2sc(NC(=O)N3CCC(C)(C#N)CC3)nc2-c2cccc(C#N)c2)cc(C([2H])([2H])[2H])n1` [Example 28, N-[5-[2,6-Bis(trideuteriomethyl)-4-pyridyl]-4-(3-cyanophenyl)thiazol-2-yl]-4-cyano-4-methyl-piperidine-1-carboxamide], the pIC50 in assay [1] was 8.05; in the assay with human PBMCs, 9.40; in assay [4] it was 7.22. Moreover, the pKi in assay [2] is 10.05; in assay [3] it was 9.00; in assay [5], 7.52; in assay [6] it was 6.42.
